In this assay the test system is L1210 leukemia ip in BDF1 mice, survival T/C. Kind of assay: NCI In Vivo Anticancer Drug Screen. Data for tumor model L1210 Leukemia (intraperitoneal) in B6D2F1 (BDF1) mice. The conditions noted are these: endpoint: mean survival time, higher = longer survival. The method in brief: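 Survival endpoint. Drug-treated group vs vehicle group, expressed as T divided by C. Tumor passaged by transplantation.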

The mark [1] stands for this setting: dose: 100.0 mg/kg/injection, schedule: Q04DX003 (ip), vehicle: saline.
[2] abbreviates: dose: 200.0 mg/kg/injection, schedule: Q04DX003 (ip), vehicle: saline.
[3] abbreviates: dose: 400.0 mg/kg/injection, schedule: Q04DX003 (ip), vehicle: saline.
The mark [4] stands for this setting: dose: 100.0 mg/kg/injection, schedule: Q01DX009 (ip), vehicle: Klucel (hydroxypropylcellulose) (HPC).
Setting [5] is: dose: 200.0 mg/kg/injection, schedule: Q01DX009 (ip), vehicle: Klucel (hydroxypropylcellulose) (HPC).
[6] abbreviates: dose: 400.0 mg/kg/injection, schedule: Q01DX009 (ip), vehicle: Klucel (hydroxypropylcellulose) (HPC).
Setting [7] is: dose: 100.0 mg/kg/injection, schedule: Q04DX002 (ip), vehicle: Klucel (hydroxypropylcellulose) (HPC).
Where [8] appears, read: dose: 200.0 mg/kg/injection, schedule: Q04DX002 (ip), vehicle: Klucel (hydroxypropylcellulose) (HPC).
The mark [9] stands for this setting: dose: 100.0 mg/kg/injection, schedule: Q04DX003 (ip), vehicle: saline with Tween-80.
[10] abbreviates: dose: 200.0 mg/kg/injection, schedule: Q04DX003 (ip), vehicle: saline with Tween-80.
Where [11] appears, read: dose: 400.0 mg/kg/injection, schedule: Q04DX003 (ip), vehicle: saline with Tween-80.

Where “and” joins values, the source holds several entries; their conditions need not be identical. Identical values can stand only once. Toxic doses and inconclusive results are not listed.

For `O=C(O)c1ccc(=O)[nH]c1`, the T/C (dose: 100.0 mg/kg/injection, schedule: Q01DX009 (ip), vehicle: saline) is 95 % of control; the T/C under setting [1] was 107 % of control; the T/C (dose: 200.0 mg/kg/injection, schedule: Q01DX009 (ip), vehicle: saline) was 96 % of control; the T/C under setting [2] is 109 % of control; the T/C (dose: 400.0 mg/kg/injection, schedule: Q01DX009 (ip), vehicle: saline) was 95 % of control; the T/C under setting [3] was 104 % of control.
Take `CNC(=O)Nc1nnc(C)s1`: the T/C runs as follows: under setting [4], 98 % of control; under setting [5], 106 % of control; under setting [6], 114 % of control.
As to `CCCSC(=O)N(CC)C(=NCC)c1ccc(NC(=O)c2ccc(C(=O)Nc3ccc(C(=NCC)N(CC)C(=O)SCCC)cc3)cc2)cc1`, the T/C (dose: 2.25 mg/kg/injection, schedule: Q01DX015 (ip), vehicle: methylcellulose (MC)) was 104 % of control; the T/C (dose: 4.5 mg/kg/injection, schedule: Q01DX015 (ip), vehicle: methylcellulose (MC)) is 100 % of control; the T/C (dose: 9.0 mg/kg/injection, schedule: Q01DX015 (ip), vehicle: methylcellulose (MC)) was 100 % of control; the T/C (dose: 18.0 mg/kg/injection, schedule: Q01DX015 (ip), vehicle: methylcellulose (MC)) was 102 % of control; the T/C (dose: 75.0 mg/kg/injection, schedule: Q01DX015 (ip), vehicle: methylcellulose (MC)) is 90 % of control; the T/C (dose: 150.0 mg/kg/injection, schedule: Q01DX015 (ip), vehicle: methylcellulose (MC)) was 86 % of control.
For `Cc1cc(Nc2ccc(C)c(C)c2)nc(N)n1`, the T/C (dose: 100.0 mg/kg/injection, schedule: Q01DX Z (ip), vehicle: methylcellulose (MC)) was 108 % of control.
In the case of `COc1ccc(/C=N\NC(=O)CNC(=O)Nc2cccc(Cl)c2)cc1OC`, the T/C reads like this: (dose: 50.0 mg/kg/injection, schedule: Q01DX009 (ip), vehicle: saline with Tween-80) 88 % of control; (dose: 100.0 mg/kg/injection, schedule: Q01DX009 (ip), vehicle: saline with Tween-80) 92 % of control; (dose: 200.0 mg/kg/injection, schedule: Q01DX009 (ip), vehicle: saline with Tween-80) 88 % of control.
As to `CCCN=C(N)c1ccc(N=C(N)c2ccc(N=C(N)c3ccc(C(N)=NCCC)cc3)cc2)cc1`, the T/C reads like this: (dose: 15.0 mg/kg/injection, schedule: Q01DX Z (ip), vehicle: carboxymethylcellulose (CMC)) 154 % of control; (dose: 30.0 mg/kg/injection, schedule: Q01DX Z (ip), vehicle: carboxymethylcellulose (CMC)) 88 % of control; (dose: 50.0 mg/kg/injection, schedule: Q01DX Z (oral), vehicle: carboxymethylcellulose (CMC)) 110 % of control; (dose: 100.0 mg/kg/injection, schedule: Q01DX Z (oral), vehicle: carboxymethylcellulose (CMC)) 109 % of control; (dose: 200.0 mg/kg/injection, schedule: Q01DX Z (oral), vehicle: carboxymethylcellulose (CMC)) 106 % of control; (dose: 400.0 mg/kg/injection, schedule: Q01DX Z (oral), vehicle: carboxymethylcellulose (CMC)) 109 % of control.
For the compound `CCCCCCCCCCCCCCCC1=NN(c2ccc([N+](=O)[O-])cc2)C(=O)C1`, the T/C is 94 % of control (dose: 100.0 mg/kg/injection, schedule: Q04DX003 (ip), vehicle: Klucel (hydroxypropylcellulose) (HPC)); 89 % of control (dose: 200.0 mg/kg/injection, schedule: Q04DX003 (ip), vehicle: Klucel (hydroxypropylcellulose) (HPC)); 100 % of control (dose: 400.0 mg/kg/injection, schedule: Q04DX003 (ip), vehicle: Klucel (hydroxypropylcellulose) (HPC)).
As to `Cc1ccc2ccccc2c1`, the T/C under setting [7] is 91 % of control and the T/C under setting [8] was 95 % of control.
Take `c1ccc2c(c1)CC([CH2][Hg][CH2]C1Cc3ccccc3O1)O2` (stereo not drawn): the T/C (dose: 100.0 mg/kg/injection, schedule: Q01DX001 (ip), vehicle: carboxymethylcellulose (CMC)) was 101 % of control and the T/C (dose: 200.0 mg/kg/injection, schedule: Q01DX001 (ip), vehicle: carboxymethylcellulose (CMC)) is 95 % of control.
With `CCC[CH2][Sn]([I])([CH2]I)[CH2]CCC`, the T/C by setting is: (dose: 6.25 mg/kg/injection, schedule: Q04DX002 (ip), vehicle: saline with Tween-80) 112 % of control; (dose: 12.5 mg/kg/injection, schedule: Q04DX002 (ip), vehicle: saline with Tween-80) 112 % of control.
As for `Cc1cccc(OC(=O)Nc2cccc(Cl)c2)c1`, the T/C runs as follows: (dose: 100.0 mg/kg/injection, schedule: Q01DX009 (ip), vehicle: carboxymethylcellulose (CMC)) 98 % of control and 110 % of control; under setting [7], 95 % of control; (dose: 100.0 mg/kg/injection, schedule: Q04DX002 (ip), vehicle: carboxymethylcellulose (CMC)) 93 % of control and 120 % of control and 92 % of control; (dose: 100.0 mg/kg/injection, schedule: Q04DX003 (ip), vehicle: carboxymethylcellulose (CMC)) 103 % of control; (dose: 200.0 mg/kg/injection, schedule: Q01DX009 (ip), vehicle: carboxymethylcellulose (CMC)) 96 % of control and 104 % of control; under setting [8], 92 % of control. Moreover, the T/C is, setting by setting: (dose: 200.0 mg/kg/injection, schedule: Q04DX002 (ip), vehicle: carboxymethylcellulose (CMC)) 97 % of control and 103 % of control and 106 % of control; (dose: 200.0 mg/kg/injection, schedule: Q04DX003 (ip), vehicle: carboxymethylcellulose (CMC)) 110 % of control; (dose: 400.0 mg/kg/injection, schedule: Q04DX002 (ip), vehicle: Klucel (hydroxypropylcellulose) (HPC)) 95 % of control; (dose: 400.0 mg/kg/injection, schedule: Q04DX002 (ip), vehicle: carboxymethylcellulose (CMC)) 98 % of control and 100 % of control and 124 % of control; (dose: 400.0 mg/kg/injection, schedule: Q04DX003 (ip), vehicle: carboxymethylcellulose (CMC)) 94 % of control.
Take `O=C(c1ccccc1)C1CSS(=O)(=O)C1c1ccccc1` (stereo not drawn): the T/C is, setting by setting: (dose: 100.0 mg/kg/injection, schedule: Q01DX001 (ip), vehicle: Klucel (hydroxypropylcellulose) (HPC)) 97 % of control; (dose: 200.0 mg/kg/injection, schedule: Q01DX001 (ip), vehicle: Klucel (hydroxypropylcellulose) (HPC)) 99 % of control; (dose: 400.0 mg/kg/injection, schedule: Q01DX001 (ip), vehicle: Klucel (hydroxypropylcellulose) (HPC)) 92 % of control.
Regarding `COc1cc(OC)cc(C(=O)N2CC2)c1`, the T/C (dose: 25.0 mg/kg/injection, schedule: Q01DX009 (ip), vehicle: water) is 100 % of control and the T/C (dose: 50.0 mg/kg/injection, schedule: Q01DX009 (ip), vehicle: water) is 88 % of control.
With `COCCN=C(N)C(N)=NCCOC`, the T/C is 102 % of control under setting [9]; 97 % of control under setting [1]; 102 % of control under setting [10]; 100 % of control under setting [2]; 95 % of control under setting [11]; 88 % of control under setting [3].
For `CN(C)c1ccc(-c2nc3nc[nH]c(=O)c3[nH]2)cc1`, the T/C was 100 % of control (dose: 5.0 mg/kg/injection, schedule: Q01DX001 (ip), vehicle: saline); 96 % of control (dose: 10.0 mg/kg/injection, schedule: Q01DX001 (ip), vehicle: saline); 96 % of control (dose: 20.0 mg/kg/injection, schedule: Q01DX001 (ip), vehicle: saline); 96 % of control (dose: 40.0 mg/kg/injection, schedule: Q01DX001 (ip), vehicle: saline); 96 % of control (dose: 80.0 mg/kg/injection, schedule: Q01DX001 (ip), vehicle: saline).
Turning to `CCc1ccc(NS(=O)(=O)c2ccc3ccccc3c2)cc1`, the T/C is, setting by setting: under setting [4], 107 % of control; under setting [5], 107 % of control; under setting [6], 98 % of control.
`O=C1c2ccccc2-c2c(I)cccc21`: the T/C (dose: 25.6 mg/kg/injection, schedule: Q04DX002 (ip), vehicle: saline with Tween-80) is 94 % of control; the T/C (dose: 64.0 mg/kg/injection, schedule: Q04DX002 (ip), vehicle: saline with Tween-80) is 94 % of control; the T/C (dose: 160.0 mg/kg/injection, schedule: Q04DX002 (ip), vehicle: saline with Tween-80) is 98 % of control; the T/C (dose: 400.0 mg/kg/injection, schedule: Q04DX002 (ip), vehicle: saline with Tween-80) was 94 % of control.
For the compound `CC(C)(C)CC(C)(C)c1ccc(OCCOc2ccc(NS(=O)(=O)c3ccc(N)c([N+](=O)[O-])c3)cc2)cc1`, the T/C is 94 % of control under setting [9] and 92 % of control under setting [10].
Turning to `COc1ccc(-n2c(=O)c(N=Nc3ccccc3)c(O)n(-c3ccc(I)cc3)c2=S)cc1`, the T/C runs as follows: under setting [9], 97 % of control; under setting [10], 100 % of control; under setting [11], 116 % of control.

The values are drawn from PubChem BioAssay AID248 (DTP/NCI, 2004).
